Here are results for six compounds from patent publication US20160303141A1, “CORTEXOLONE 17alpha-PROPIONATE FOR USE IN THE TREATMENT OF SKIN WOUNDS AND/OR ATROPHIC SKIN DISORDERS” (CASSIOPEA S.P.A., priority 2013, published 2016).

Assay [1] concerns testosterone propionate (TP) response. Put plainly: Local antiandrogenic activity, flank organ test in hamster. Type of assay: in vivo. Conditions: for Percent inhibition of testosterone propionate (TP) response: topical on flank organ; for Mean inhibition (%): mean over daily doses 100, 200, 400 μg + 4 μg TP.
Assay [2] has as its system Adult human dermal fibroblasts (HDF). Put plainly: In-vitro fibroblast proliferation (BrdU incorporation). Conditions: for Fibroblast proliferation (Δ% vs. control): Table 2 summary; for proliferative stimulating effect (in words): same test and conditions as Example 1; for Δ % vs. control (proliferation) / Absorbance ± SD Treated: 72 h; for Absorbance ± SD Treated: BrdU, 450 nm. Type of assay: cell-based. How it is done: Fibroblast proliferation: Adult human dermal fibroblasts (HDF) were appropriately grown, and were employed between 2nd and 6th passage. […] Twenty-four hours before end of incubation, the cells were labelled with Bromo deoxyuridine (BrdU, 10 μL/well) and its incorporation into DNA was evaluated measuring the absorbance of the samples in an ELISA reader at 450 nm. The proliferation rate of the fibroblasts was evaluated on the increase of the absorbance of the samples.

Assay [3] shares this test system. Put plainly: In-vitro effect on extra-cellular protein synthesis (Bradford). Type of assay: cell-based. Conditions: for Protein synthesis (Δ% vs. control): Table 2 summary; for effect on extracellular protein synthesis (in words): same test and conditions as Example 3; for Δ % vs. control (protein concentration) / Protein concentration Treated: 72 h; for Protein concentration Treated: supernatant. As to the method:
Adult human dermal fibroblasts (HDF) were appropriately grown, and were employed between 2nd and 6th passage. The fibroblasts, plated in a 24-wells plate at the density of 12×10^4 cells/mL (1 mL/well), were incubated for 72 hours with rhEGF (100 nM) as positive control, or with cortexolone 17α-propionate at concentration of 5 μM, 25 μM, 50 μM. After 72 h of incubation the supernatant were mixed with 1 mL of Bradford reagent and incubated for 45 minutes at room temperature. Each sample was then read in a spectrophotometer at 595 nm.

For assay [4] the test system is unchanged. Put plainly: In-vitro effect on synthesis of type I procollagen (PIP ELISA). The conditions noted are these: for Procollagen I Synthesis (Δ% vs. control): Table 2 summary; for effect on synthesis of type I procollagen (in words): same test and conditions as Example 4; for Δ % vs. control (PIP) / PIP concentration: 48 h; for PIP concentration: supernatant. Type of assay: cell-based. How it is done:
Adult human dermal fibroblasts (HDF) were appropriately grown, and were employed between 2nd and 4th passage. […] After the incubation the supernatant were collected and dosed for the terminal peptide of type I procollagen (PIP) with ELISA kit. The measurement of PIP concentration in the culture medium is representative for the production of collagen type I. The results of type I procollagen concentration (PIP) are reported in the Table 6 below: […]
(In an ELISA, binding on a coated surface is turned into a signal by an enzyme label.)

The test system is the same in assay [5]. Put plainly: In-vitro fibroblast migration (image density). Type of assay: cell-based. Conditions: for Image density 6 h: 6 h after insert removal; for Image density 24 h: 24 h after insert removal; for Image density t0: immediately after insert removal; for Δ (%) vs. vehicle (migration): increase t0-24 h. As to the method:
Fibroblast migration: Adult human dermal fibroblasts (HDF) were appropriately grown, and were employed between 2nd and 6th passage. […] After incubation the culture-insert was removed and the cells were maintained in culture for further 24 hours. Immediately after insert removal, and at interval of 6 and 24 h, the plates were photographed by Digital Microscope Eyepiece. The entity of cell migration was measured using image analyzing software Image J, and was expressed as image density.

Assay [6] concerns cutaneous wounds. Put plainly: In vivo wound healing activity, repTOP mitoIRE mouse model. Conditions: 250 mg/mouse topical. As to the method: The wound healing activity of the cortexolone 17α-propionate on cutaneous wounds was evaluated in an in vivo test foreseeing the use of repTOP™ mitoIRE mouse model. RepTOP™ mitoIRE mice from TOP® S.r.l. are engineered for the ubiquitous and proliferation-regulated expression of luciferase in proliferating tissues by embedding the transgene containing the minimal promoter of Cyclin B2d driving the firefly luciferase gene within HS4 insulator sequences.
Cortexolone 17α-propionate was dissolved in 0.4% (v/v) tween 80 and 0.5% (w/v) carboxymethylcellulose in normal saline.
The test was carried out comparing the wound healing activity of cortexolone 17α-propionate at two different dosages (50 mg/mouse and 250 mg/mouse) versus the vehicle (i.e. 0.4% (v/v) tween 80 and 0.5% (w/v) carboxymethylcellulose in normal saline) and versus a comparator, i.e. Cicatrene® cream (Johnson&Johnson®), a drug product used in wound management and wound healing.
Animal treatments. The repTOP™ mitoIRE mice were shaved by VEET® depilatory cream a day before the treatment. A round full-thickness wound of 0.4 cm^2 area was made through the dorsal skin and the panniculus carnosus muscle of repTOP™ mitoIRE by using skin biopsy devices (HS biopsy punch).
In vivo test. In order to establish the proliferative stimulating activity of cortexolone 17α-propionate, the vehicle (200 μl/mouse), cortexolone 17α-propionate (50 mg/mouse), cortexolone 17α-propionate (250 mg/mouse) and Cicatrene® (200 mg/mouse) were spread topically on the wound of repTOP™ mitoIRE mice (4 mice per group of treatment), immediately after the generation of the round punch. Photon-emission was measured in wound area at the following times: time 0 and 1, 2, 3 and 6 days after the treatment. A representation of the area of wound selected for the measurements is depicted in FIG. 1.
In vivo imaging. […] Photon emission in wound area was measured using the Living Image Software (Caliper™, a Perkin Elmer™ company) and expressed as photon/second/cm^2/steradian (p/s/cm^2/sr). The measurement of wound areas was expressed as cm^2.

Where [7] appears, read: daily dose 100 μg test compound + 4 μg TP.
The mark [8] stands for this setting: daily dose 200 μg test compound + 4 μg TP.
The mark [9] stands for this setting: daily dose 400 μg test compound + 4 μg TP.

With `CCCC(=O)OCC(=O)[C@@]1(OC(=O)CCC)CC[C@H]2[C@@H]3CCC4=CC(=O)CC[C@]4(C)[C@H]3CC[C@@]21C` [Cortexolone 17α,21-dibutyrate, cortexolone 17α,21-dibutyrate], the “Percent inhibition of testosterone propionate (TP) response” value (shortened to “Percent inhibition”) in assay [1] (setting [7]) was determined as 84%; in assay [1] (setting [8]), 89%; in assay [1] (setting [9]) it was 97%. Moreover, the “Mean inhibition (%)” value in assay [1] is 90%. Also, in assay [2] (50 μM), the “Fibroblast proliferation (Δ% vs. control)” value came to 9.6%. The “proliferative stimulating effect (in words)” value in assay [2] is “did not show any proliferative stimulating effect”. The “Protein synthesis (Δ% vs. control)” value in assay [3] (50 μM) worked out at 0.6%. In addition, in assay [3], the “effect on extracellular protein synthesis (in words)” value is listed as “did not show any effect in increasing the extracellular protein synthesis”. Moreover, the “Procollagen I Synthesis (Δ% vs. control)” value in assay [4] (50 μM) is listed as −2.8%. In addition, the “effect on synthesis of type I procollagen (in words)” value in assay [4] is “did not show any effect in increasing the synthesis of type I procollagen”.
As for `CCC(=O)O[C@]1(C(=O)CO)CC[C@H]2[C@@H]3CCC4=CC(=O)CC[C@]4(C)[C@H]3CC[C@@]21C` [Cortexolone 17α-propionate, cortexolone 17α-propionate], the “Percent inhibition” value in assay [1] (setting [7]) is 62%. The “Percent inhibition” value in assay [1] (setting [8]) was found to be 69%. Moreover, the “Percent inhibition” value in assay [1] (setting [9]) is on record as 86%. In assay [1], the “Mean inhibition (%)” value was 72%. In assay [2] (1 μM), the “Δ % vs. control (proliferation)” value is −0.95% and the “Absorbance ± SD Treated” value was 2.06 ± 0.15. Also, in assay [2] (5 μM), the “Δ % vs. control (proliferation)” value was determined as 6.71% and the “Absorbance ± SD Treated” value is recorded as 2.05 ± 0.24. Besides, in assay [2] (25 μM), the “Δ % vs. control (proliferation)” value is given as 7.00% and the “Absorbance ± SD Treated” value is given as 2.09 ± 0.19. Also, in assay [2] (50 μM), the “Δ % vs. control (proliferation)” value turned out to be 30.98%, the “Absorbance ± SD Treated” value stood at 2.48 ± 0.23 and the “Fibroblast proliferation (Δ% vs. control)” value was found to be 31.0%. For the same compound, in assay [5] (10 μM), the “Increase from t0 − 24 h (image density)” value worked out at 35.2, the “Image density 6 h” value was 24.0 ± 2.4, the “Image density 24 h” value was 54.5 ± 2.5 and the “Image density t0” value is on record as 19.3 ± 0.8. Also, the “Δ (%) vs. vehicle (migration)” value in assay [5] (10 μM) came to 30.3%. Also, in assay [5] (50 μM), the “Increase from t0 − 24 h (image density)” value is listed as 44.0, the “Image density 6 h” value is recorded as 25.1 ± 1.2, the “Image density 24 h” value is on record as 64.1 ± 5.6 and the “Image density t0” value is listed as 20.1 ± 2.0. In assay [5] (50 μM), the “Δ (%) vs. vehicle (migration)” value was 62.9%. For the same compound, in assay [3] (5 μM), the “Δ % vs. control (protein concentration)” value was 0% and the “Protein concentration Treated” value turned out to be 0.5 ± 0.056 mg/mL. In addition, in assay [3] (25 μM), the “Δ % vs. control (protein concentration)” value is listed as 12.18% and the “Protein concentration Treated” value was determined as 0.884 ± 0.028 mg/mL. In assay [3] (50 μM), the “Δ % vs. control (protein concentration)” value is on record as 27.41%, the “Protein concentration Treated” value was determined as 0.846 ± 0.087 mg/mL and the “Protein synthesis (Δ% vs. control)” value was determined as 27.4%. Besides, in assay [4] (10 μM), the “Δ % vs. control (PIP)” value was −8.27% and the PIP concentration came out at 949.50 ± 149.81 ng/mL. In assay [4] (50 μM), the “Δ % vs. control (PIP)” value is 199.59%, the PIP concentration stood at 3100.98 ± 152.59 ng/mL and the “Procollagen I Synthesis (Δ% vs. control)” value came out at 199.6%. Also, the “time of maximum increase of proliferative cells after administration” value in assay [6] is given as 3 days. In assay [6] (after 3 days from administration), the “mean reduction in wound area” value is given as 26%. Also, in assay [6] (time 3 days), the “increase of photon-emission from wounds with respect to time 0” value turned out to be 143%.
For `CCCCC(=O)O[C@]1(C(=O)CO)CC[C@H]2[C@@H]3CCC4=CC(=O)CC[C@]4(C)[C@H]3CC[C@@]21C` [Cortexolone 17α-valerate, cortexolone 17α-valerate], the “Percent inhibition” value is reported as 66% in assay [1] (setting [7]), 65% in assay [1] (setting [8]) and 73% in assay [1] (setting [9]). In addition, the “Mean inhibition (%)” value in assay [1] is listed as 68%. For the same compound, the “Fibroblast proliferation (Δ% vs. control)” value in assay [2] (50 μM) is −33.8%. Moreover, the “proliferative stimulating effect (in words)” value in assay [2] is “did not show any proliferative stimulating effect”. Also, in assay [3] (50 μM), the “Protein synthesis (Δ% vs. control)” value was −3.8%. The “effect on extracellular protein synthesis (in words)” value in assay [3] is reported as “did not show any effect in increasing the extracellular protein synthesis”. Moreover, the “Procollagen I Synthesis (Δ% vs. control)” value in assay [4] (50 μM) is −14.6%. In addition, in assay [4], the “effect on synthesis of type I procollagen (in words)” value is reported as “did not show any effect in increasing the synthesis of type I procollagen”.
With `C[C@]12CCC(=O)C=C1CC[C@@H]1[C@@H]2[C@@H](O)C[C@@]2(C)[C@H]1CC[C@]2(O)C(=O)CO` [Cortisol, cortisol, reference compound], in assay [2] (50 μM), the “Δ % vs. control (proliferation)” value was −56.84%. In addition, in assay [5] (50 μM), the “Increase from t0 − 24 h (image density)” value is on record as 34.4, the “Image density 6 h” value was determined as 22.9 ± 2.7, the “Image density 24 h” value came out at 56.6 ± 4.4 and the “Image density t0” value came to 22.2 ± 3.2. Also, the “Δ (%) vs. vehicle (migration)” value in assay [5] (50 μM) was found to be 27.4%. In assay [4] (50 μM), the “Δ % vs. control (PIP)” value is −74.94% and the PIP concentration is listed as 259.36 ng/mL.
For `O=C1O[C@H]([C@@H](O)CO)C(O)=C1O` [Vit. C, L-Ascorbic acid], in assay [4] (0.2 mM), the “Δ % vs. control (PIP)” value came to 260.87% and the PIP concentration came to 3735.27 ± 515.52 ng/mL.
With “rhEGF: recombinant human Epidermal Growth Factor, known fibroblast proliferation promoter, positive control”, in assay [2] (100 nM), the “Δ % vs. control (proliferation)” value is listed as 49.49% and the “Absorbance ± SD Treated” value worked out at 2.72 ± 0.22. Moreover, in assay [5] (100 nM), the “Increase from t0 − 24 h (image density)” value worked out at 43.6, the “Image density 6 h” value was found to be 21.6 ± 1.0, the “Image density 24 h” value is 65.7 ± 4.2 and the “Image density t0” value is 22.1 ± 2.9. In addition, in assay [5] (100 nM), the “Δ (%) vs. vehicle (migration)” value stood at 61.5%. In addition, in assay [3] (100 nM), the “Δ % vs. control (protein concentration)” value turned out to be 49.54% and the “Protein concentration Treated” value was determined as 0.978 ± 0.074 mg/mL.
